Entries after “also recorded” stand apart in the source; their conditions may differ.
How the values were obtained:
[1] = test system: MDCK-mdr1 cells; assay: MDCK-mdr1 permeability assay; assay type: in vitro ADME, canine; settings: 10 μM apical, 1 h, 37 °C, pH 7.4
[2] = test system: central CB1Rs; assay: Tetrad CNS side effect tests; assay type: in vivo, rat; settings: naïve rats; for CNS side effects in catalepsy, motor incoordination, hypothermia assays: oral, up to 10 mg/kg; for CNS side effects in catalepsy, rotarod, hypothermia assays: ip, 0.3 mg/kg and 3-fold higher doses
[3] = test system: acute nociception in naïve rats; assay: Tail-flick test; assay type: in vivo, rat
[4] = test system: neuropathy induced by unilateral sciatic nerve entrapment (SNE); assay: SNE-induced mechanical allodynia; assay type: in vivo, rat; settings: SNE rats
[5] = target: hCB1R (Homo sapiens, UniProt P21554); assay: CB1R radioligand displacement binding assay; settings: for Ki: read-out: Ki (nM) hCB1R vs CP55,940, [3H]-CP55940 displacement, Cheng–Prusoff
Sequence of hCB1R (P21554 whole entry): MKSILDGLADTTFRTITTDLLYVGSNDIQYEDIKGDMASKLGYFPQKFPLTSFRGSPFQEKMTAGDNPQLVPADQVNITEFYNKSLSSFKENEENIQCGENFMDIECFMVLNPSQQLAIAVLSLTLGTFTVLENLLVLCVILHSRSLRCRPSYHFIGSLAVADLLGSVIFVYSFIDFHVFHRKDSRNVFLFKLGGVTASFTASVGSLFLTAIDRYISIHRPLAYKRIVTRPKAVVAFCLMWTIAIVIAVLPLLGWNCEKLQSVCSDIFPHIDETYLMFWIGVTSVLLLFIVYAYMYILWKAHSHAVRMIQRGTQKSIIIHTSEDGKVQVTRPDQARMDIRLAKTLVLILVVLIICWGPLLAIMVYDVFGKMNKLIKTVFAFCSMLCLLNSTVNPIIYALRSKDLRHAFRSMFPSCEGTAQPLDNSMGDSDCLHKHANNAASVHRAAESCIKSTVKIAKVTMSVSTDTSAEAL

[6] = test system: antiallodynic effect of 2-5u in the SNE neuropathy; assay: Pretreatment with CB1R/CB2R blockers before 2-5u in SNE rats; assay type: in vivo, rat; settings: blocker (2 and 3: 3 mg/kg ip) 30 min before 2-5u 0.6 mg/kg
[7] = Pharmacokinetics: plasma, brain and CSF levels; settings: rat, 0.3 mg/kg ip, ~75 min

Compound: CCc1ccc(/C=C2\C=C(CCN3CCOCC3)c3ccccc32)c2ccccc12 [2-5t, 4-{2-[(1E)-1-[(4-Ethylnaphthalen-1-yl)methylidene]-1H-indenyl]-ethyl}morpholine]
- MDCK B/A ratio (basolateral:apical) [1]: 0.000
- CNS side effects in catalepsy, motor incoordination, hypothermia assays [2]: relative lack of side effects in the catalepsy, motor incoordination, and hypothermia assays
- effect in tail-flick assay ([3]; oral): small effects in the tail-flick assay

Compound: C1=C(CCN2CCOCC2)c2ccccc2/C1=C/c1cccc2ccccc12 [2-5a, 4-{2-[(1E)-1-(Naphthalen-1-ylmethylidene)-1H-inden-3-yl]ethyl}-morpholine]
- suppression of SNE-induced mechanical allodynia ([4]; 0.3 mg/kg ip, 0.3 mg/kg): much smaller effect; also recorded: considerably smaller increases in thresholds than 2-5u or 2-5j

Compound: CCCCCn1cc(C(=O)c2ccc(C(=O)OC)c3ccccc23)c2ccccc21 [1-4a, Methyl 4-[(1-Pentyl-1H-indol-3-yl)carbonyl]naphthalene-1-carboxylate]
- MDCK B/A ratio (basolateral:apical) [1]: 0.00

Compound: CCCCCCC(C)(C)c1cc(O)c2c(c1)OC(C)(C)[C@@H]1CC=C(CO)C[C@@H]21 [compound 1, reference compound]
- CNS side effects in catalepsy (ring), core temperature, rotarod tests ([2]; 0.01 mg/kg ip, positive control, 0.01 mg/kg): strong CNS side effects; also recorded: profound CNS side effects

Compound: CCCCCn1cc(C(=O)c2cccc3ccccc23)c2c(F)cccc21 [1-4h, 4-Fluoro-3-[(naphthalen-1-yl)carbonyl]-1-pentyl-1H-indole]
- MDCK B/A ratio (basolateral:apical) [1]: 0.000

Compound: CCCCCC1=C/C(=C\c2cccc3ccccc23)c2ccccc21 [2-7a, 1-{[(1E)-3-pentyl-1H-inden-1-ylidene]methyl}naphthalene, reference compound]
- MDCK B/A ratio (basolateral:apical) [1]: 0.04

Compound: N-(3-Carboxybutyl)-3-(1-naphthoyl)-1H-indole [1-4g]
- Ki [5]: > 10000 nM

Compound: COc1ccc(/C=C2\C=C(CCN3CCOCC3)c3ccccc32)c2ccccc12 [2-5j, 4-{2-[(1E)-1-[(4-Methoxynaphthalen-1-yl)methylidene]-1H-inden-3-yl]ethyl}morpholine]
- MDCK B/A ratio (basolateral:apical) [1]: 0.000
- suppression of SNE-induced mechanical allodynia ([4]; 0.3 mg/kg ip, 0.3 mg/kg): large, reversible decreases in mechanical allodynia; also recorded: complete suppression of mechanical allodynia symptoms
- CNS side effects in catalepsy, rotarod, hypothermia assays [2]: no effect in the assays of CNS CB1R activation
- CNS side effects in catalepsy, motor incoordination, hypothermia assays [2]: relative lack of side effects in the catalepsy, motor incoordination, and hypothermia assays
- effect in tail-flick assay ([3]; oral): small effects in the tail-flick assay

Compound: COC(=O)c1ccc(C(=O)c2cn(CCN3CCOCC3)c3ccccc23)c2ccccc12 [1-4o]
- MDCK B/A ratio (basolateral:apical) [1]: 1.02

Compound: N-(3-Ethoxycarbonylbutyl)-3-(1-naphthoyl)-1H-indole [1-4e]
- Ki [5]: 1470 nM

Compound: CCCCCn1cc(C(=O)c2cccc3ccccc23)c2cccc(F)c21 [1-4k, 7-Fluoro-3-[(naphthalen-1-yl)carbonyl]-1-pentyl-1H-indole]
- MDCK B/A ratio (basolateral:apical) [1]: 0.000

Compound: (1E)-3-hexyl-1-(2-phenylethylidene)-1H-indene [2-7c]
- Ki [5]: 4410 nM
- loss of hCB1R affinity versus 2-7a ([5]; versus 2-7a (pentyl)): 256 fold
- loss of hCB1R affinity versus 2-7b ([5]; versus naphthylidene analogue 2-7b (n-hexyl)): 10 fold

Compound: CCCCCn1cc(C(=O)c2cccc3ccccc23)c2cc(F)ccc21 [1-4i, 5-Fluoro-3-[(naphthalen-1-yl)carbonyl]-1-pentyl-1H-indole]
- MDCK B/A ratio (basolateral:apical) [1]: 0.000

Compound: CCCCCn1cc(C(=O)c2cccc3ccccc23)c2ccc(F)cc21 [1-4j, 6-Fluoro-3-[(naphthalen-1-yl)carbonyl]-1-pentyl-1H-indole]
- MDCK B/A ratio (basolateral:apical) [1]: 0.000

Compound: Cc1c(C(=O)NN2CCCCC2)nn(-c2ccc(Cl)cc2Cl)c1-c1ccc(Cl)cc1 [compound 2]
- effect of pretreatment on antiallodynic effect of 2-5u [6]: completely blocked the antiallodynic effect of 2-5u; also recorded: completely blocks the response to 2-5u

Compound: CCCc1ccc(/C=C2\C=C(CCN3CCOCC3)c3ccccc32)c2ccccc12 [2-5u, 4-{2-[(1E)-1-[(4-Propylnaphthalen-1-yl)methylidene]-1H-inden-3-yl]ethyl}morpholine]
- MDCK B/A ratio (basolateral:apical) [1]: 0.000
- suppression of SNE-induced mechanical allodynia ([4]; 0.3 mg/kg ip, 0.3 mg/kg): large, reversible decreases in mechanical allodynia; also recorded: ipsilateral thresholds are increased to levels of predrug contralateral thresholds; also recorded: complete suppression of mechanical allodynia symptoms
- suppression of SNE-induced mechanical allodynia ([4]; 3 mg/kg oral, 3 mg/kg): reversibly suppresses SNE neuropathy symptoms; also recorded: effective in suppressing neuropathy symptoms after oral administration; also recorded: complete suppression of allodynia symptoms at peak effect
- CNS side effects in catalepsy, rotarod, hypothermia assays ([2]; 0.3 mg/kg): lack effects in the catalepsy, rotarod, or hypothermia assays; also recorded: no effect in the assays of CNS CB1R activation
- CNS side effects in catalepsy, motor incoordination, hypothermia assays [2]: relative lack of side effects in the catalepsy, motor incoordination, and hypothermia assays; also recorded: no significant effect on central CB1Rs
- effect in tail-flick assay ([3]; ip (2-5u 0.3 mg/kg)): small effect in the tail-flick assay; also recorded: small analgesic effect; also recorded: small effects on acute nociception
- effect in tail-flick assay ([3]; oral): small effects in the tail-flick assay
- CNS penetration (plasma, brain, CSF samples) [7]: minimal penetration of 2-5u into the CNS

Reference: PMC5474949 (Journal of medicinal chemistry, 2016)
